Where a name gives a salt, the structure may show the parent alone.
Compound	melting point
CN1CCN(c2cccc3c2CN(C(=O)c2ccc(N4CCOCC4)cc2)CC3)CC1 [Example 11, [8-(4-Methyl-piperazin-1-yl)-3,4-dihydro-1H-isoquinolin-2-yl]-(4-morpholin-4-yl-phenyl)-methanone]	129 °C (dec.)
CN1CCN(c2cccc3c2CN(C(=O)Cc2ccccc2Cl)CC3)CC1 (as salt: salt) [Example 7, 2-(2-Chloro-phenyl)-1-[8-(4-methyl-piperazin-1-yl)-3,4-dihydro-1H-isoquinolin-2-yl]-ethanone]	54 °C
CN1CCN(c2cccc3c2CN(C(=O)Cc2ccc(Cl)cc2Cl)CC3)CC1 (as salt: salt) [Example 6, 2-(2,4-Dichloro-phenyl)-1-[8-(4-methyl-piperazin-1-yl)-3,4-dihydro-1H-isoquinolin-2-yl]-ethanone]	85 °C
CN1CCN(c2cccc3c2CN(C(=O)CC2CC2)CC3)CC1 (as salt: salt)	66 °C
CN1CCN(c2cccc3c2CN(C(=O)Cc2cccnc2)CC3)CC1 (as salt: salt) [Example 9, 1-[8-(4-Methyl-piperazin-1-yl)-3,4-dihydro-1H-isoquinolin-2-yl]-2-pyridin-3-yl-ethanone]	56 °C
CN1CCN(c2cccc3c2CN(C(=O)Cc2ccc(Cl)c(Cl)c2)CC3)CC1 [Example 12, 2-(3,4-Dichloro-phenyl)-1-[8-(4-methyl-piperazin-1-yl)-3,4-dihydro-1H-isoquinolin-2-yl]-ethanone]	66 °C

Continued, values first:

melting point	Compound
63 °C	COc1ccc(CC(=O)N2CCc3cccc(N4CCN(C)CC4)c3C2)cc1 (as salt: salt) [Example 3, 2-(4-Methoxy-phenyl)-1-[8-(4-methyl-piperazin-1-yl)-3,4-dihydro-1H-isoquinolin-2-yl]-ethanone]
84 °C	CN1CCN(c2cccc3c2CN(C(=O)CCc2ccc(Cl)cc2)CC3)CC1 (as salt: salt) [Example 2, 3-(4-Chloro-phenyl)-1-[8-(4-methyl-piperazin-1-yl)-3,4-dihydro-1H-isoquinolin-2-yl]-propan-1-one]
52 °C	CN1CCN(c2cccc3c2CN(C(=O)c2ccc(Cl)cc2)CC3)CC1 (as salt: salt) [Example 10, (4-Chloro-phenyl)-[8-(4-methyl-piperazin-1-yl)-3,4-dihydro-1H-isoquinolin-2-yl]-methanone]

From patent US7101881B2, “Tetrahydroquinolines” (Pfizer Inc, priority 2003, dated 2006)
